Laboratory results from patent US10821142B2, “Cancer treatment and diagnosis” (priority 2015, dated 2020).

What was measured:
Type in all cases: cell-based, human
[1] = test system: STING-dependent dsDNA signaling; test: IFNB and CXCL10 induction by dsDNA in 5AZADC treated melanoma cells
Method: (§1) FIGS. 30A-30G show DNA demethylation partially recapitulated STING and cGAS expression in human melanoma cell lines. FIG. 30A, qPCR analysis of cGAS expression in indicated human melanoma cells mock treated or treated with 1 μM […] (5AZADC) for 5 days. FIG. 30B, Immunoblot analysis of STING in indicated human melanoma cells treated same as above. FIG. 30C, RNA FISH analysis of STING and cGAS in cells (same as above) treated with 5AZADC same as above. Representative images are shown at 1260×. Bar size, 400 nm. qPCR analysis of IFNB (FIG. 30D) and CXCL10 (FIG. 30E) in cells (same as above) treated with 5AZADC followed by dsDNA transfection at 3 μg/ml dsDNA90 for 3 hours. Immunofluorescence Microscopy analysis of IRF3 translocation (FIG. 30F) and STING translocation (FIG. 30G) in indicated cells treated same as in FIG. 30D. Representative images are shown at 1260×. Bar size, 500 nm.
In view of this, it was examined whether STING or cGAS expression was suppressed by epigenetic processes, such as by hypermethylation of the promoter regions (20, 21). Indeed, databank analysis indicated the presence of considerable CpG islands within the STING and cGAS promoter region. As such, melanoma cells lacking either STING or cGAS expression were treated with the de-methylating agent 5-Aza-2′-deoxycytidine (5AZADC) for 5 days and evaluated recapitulation of STING or cGAS expression. […] Therefore DNA hypermethylation is involved in silencing STING or cGAS expression in some melanoma cells (A375 and MeWo). However it is not yet clear why expression levels of STING are muted in the remainder melanoma cells (G361, SK-MEL-5). Other epigenetic modifications such as histone modifications or other transcription regulator factors such as miRNA could be involved in suppressing STING and/or cGAS expression (Jin et al., 2013, Yarbrough et al., 2014). […]
Total RNA was reverse-transcribed using QuantiTect Reverse Transcription Kit (Qiagen). […]

cGAS expression = cGAS expression (qPCR) in cGAS negative colon cancer cells after epigenetic drug treatment; conditions: LS174T, SW480, SW1417, SW48, HT116; 5 days; rescued: SW480 and HT116
Method: FIGS. 5A-5F show STING activation and cytosolic DNA pathway in colon cancer cells were mostly defective: A series of colon cancer cells as well as normal cell controls were either mock transfected or transfected with dsDNA90 at 3 μg/ml for 3 hours, and were analyzed by Immunofluorescence Microscopy for STING translocation (FIG. 5A), IRF3 translocation (FIG. 5B), and p65 translocation (FIG. 5C). (FIG. 5D) Cells, same as above, were either mock transfected or transfected with dsDNA90 at 3 μg/ml for indicated time periods followed by immunoblot analysis for STING phosphorylation as well as phosphorylation of TBK1, IRF3 and p65. β-actin was used as loading control. (FIG. 5E) Cells, same as above, were analyzed by qPCR for cGAS expression. (FIG. 5F) Cells that have undetectable level of cGAS in E were treated with 1 μM 5-azacytidine for […], followed by qPCR analysis for cGAS expression. […] Error bars indicate s.d.
FIGS. 15A-15E show cGAS expression is suppressed in many human colon cancer cell lines and can be partially recapitulated through DNA demethylation. […]
To complement the above study, the expression of cGAS in the colon cancer cell-lines was examined. […] Given these findings, examination of the expression of cGAS in 47 human colon cancers at various stages of tumorigenesis was analyzed (FIG. 13C). Expression of cGAS was low to undetectable in approximately 30% of cells analyzed. […]

[2] = test system: STING and cGAS expression; test: STING and cGAS expression in melanoma cells after 5AZADC (qPCR, immunoblot, RNA FISH); conditions: 5 days
Method: as §1
In view of this, it was examined whether STING or cGAS expression was suppressed by epigenetic processes, such as by hypermethylation of the promoter regions (20, 21). Indeed, databank analysis indicated the presence of considerable CpG islands within the STING and cGAS promoter region. As such, melanoma cells lacking either STING or cGAS expression were treated with the de-methylating agent 5-Aza-2′-deoxycytidine (5AZADC) for 5 days and evaluated recapitulation of STING or cGAS expression. […] Therefore DNA hypermethylation is involved in silencing STING or cGAS expression in some melanoma cells (A375 and MeWo). However it is not yet clear why expression levels of STING are muted in the remainder melanoma cells (G361, SK-MEL-5). Other epigenetic modifications such as histone modifications or other transcription regulator factors such as miRNA could be involved in suppressing STING and/or cGAS expression (Jin et al., 2013, Yarbrough et al., 2014). To determine if reconstitution of STING/cGAS expression rescued STING-dependent dsDNA signaling, IFNB and CXCL10 induction was examined in 5AZADC treated melanoma cells following dsDNA stimulation. […] Thus, demethylating agents may be able to partially rescue STING-dependent innate immune gene induction in select melanoma cells.
Equal amounts of proteins were resolved on sodium dodecyl sulfate (SDS)-Polyacrylamide gels and then transferred to polyvinylidene fluoride (PVDF) membranes (Millipore). After blocking with 5% Blocking Reagent, membranes were incubated with various primary antibodies (and appropriate secondary antibodies). The image was resolved using an enhanced chemiluminescence system ECL (Thermo Scientific) and detected by autoradiography (Kodak). Antibodies: rabbit polyclonal antibody against STING was developed in our laboratory as described previously in Ishikawa et al, 2008; other antibodies were obtained from following sources: β-actin (Sigma Aldrich), p-IRF3 (Cell Signaling), IRF3 (Santa Cruz Biotechnology), p-p65 (Cell Signaling), p65 (Cell Signaling), p-TBK1 (Cell Signaling), TBK1 (Abcam), cGAS (Cell Signaling).
Total RNA was reverse-transcribed using QuantiTect Reverse Transcription Kit (Qiagen). Real-time PCR was performed with the TaqMan gene Expression Assay (Applied Biosystems).
STING and cGAS RNA probed was custom designed by ACD and RNA in situ Hybridization was performed using RNAscope® Multiplex Fluorescent Reagent Kit for cultured cells and 2-plex RNAscope® Reagent Kit for FFPE cells and tissue following the manufacturer's instruction.

[3] = test system: STING-dependent dsDNA signaling; test: STING signal activation by dsDNA90 in colon cancer cells after demethylation; conditions: for phosphorylation of TBK1 and IRF3 after dsDNA: 5AZADC 5 days then dsDNA90 3 μg/ml

With `Nc1ncn([C@H]2C[C@H](O)[C@@H](CO)O2)c(=O)n1` [5AZADC, 5-Aza-2′-deoxycytidine] the “STING function following dsDNA stimulation” value ([1]; G361 or SK-MEL-5 cells) was “no STING function was observed”, the “IFNB induction following dsDNA stimulation” value ([1]; STING rescued MeWo cells) was “modest expression of IFNB” and the “IFNB and CXCL10 induction following dsDNA stimulation” value ([1]; cGAS rescued A375 cells) was “Induction of both IFNB and CXCL10 production was observed”. The “cells in which cGAS expression was rescued” value (cGAS expression) was 2 of the 5, the cGAS expression ([2]; A375 cells) was “cGAS expression was recovered” and the STING expression ([2]; G361 and SK-MEL-5 cells) was “STING remained absent”. For the same compound, the STING expression ([2]; MeWo cells, immunoblot and RNA FISH) was “STING expression was restored”, the cGAS expression ([2]; SK-MEL-5 cells) was “partially restored” and the cGAS expression ([2]; SK-MEL-24 cells) was “did not seem to affect cGAS expression level”. For the same compound, the “expression of type I IFN and IL-1β after dsDNA” value ([3]; 5AZADC treated SW480 and HT116, dsDNA90 3 μg/ml for 3 hours) was “modest expression of type I IFN and IL-1β”, the “phosphorylation of TBK1 and IRF3 after dsDNA” value ([3]; LS174T (cGAS not rescued)) was “not LS174T cells regained phosphorylation of TBK1 and IRF3” and the “phosphorylation of TBK1 and IRF3 after dsDNA” value ([3]; SW480, HT116 (cGAS rescued)) was “regained phosphorylation of TBK1 and IRF3”.
